Assay results reported in patent US9409952B2, “Peptide-compound cyclization method” (Chugai Seiyaku Kabushiki Kaisha, priority 2011, dated 2016).
Starred links: 1 amine or outer side, 2 acyl side, 3 side chain; linkers in the order of their positions; H or OH if unused. Positions of bridges follow the written chain, without caps; N, C: chain ends. Non-standard residues stand in square brackets, D forms with d. Residues, ends and D or L forms follow the SMILES beside them. *: point of attachment. NMePhe(3-Cl) = CN[C@@H](Cc1cccc(Cl)c1)C(=O)O; NMeF = CN[C@@H](Cc1ccccc1)C(=O)O; NMeGABA = CN(CCCC(=O)[*:2])[*:1]; NMeI = CC[C@H](C)[C@H](NC)C(=O)O; NMeβAla = CN(CCC(=O)[*:2])[*:1]; NMeL = CN[C@@H](CC(C)C)C(=O)O; NMeV = CN[C@H](C(=O)O)C(C)C; NMeA = CN[C@@H](C)C(=O)O; Piperidide = C1CCN(*)CC1; dNMeA = CN[C@H](C)C(=O)O; β3hA = C[C@H](N)CC(=O)O; Sar = CNCC(=O)O; tBu = CC(C)(C)*

Columns and labels:
[1] = PAMPA (parallel artificial membrane permeability assay); type: in vitro ADME; details: PAMPA; membrane permeation rate (Pe); 50 mM MOPSO buffer pH 6.5 with 5.0% glycocholic acid, 37° C., 18 hours; read-out: iPAMPA Pe
Procedure, shortened: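 Artificial membrane was 10% (w/v) egg lecithin plus 0.5% (w/v) cholesterol in dodecane on a PVDF filter. A 10 mM DMSO stock was added at 0.5% (v/v) to donor buffer (50 mM MOPSO, pH 6.5, 5.0% glycocholic acid). After 18 h at 37 °C, LC/MS or LC/UV gave donor and acceptor levels for Pe.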

[2] = Metabolic stability in human hepatic microsome; type: in vitro ADME; details: microsomes, pH 7.4; human hepatic microsome, NADPH(+); read-out: CL NADPH(+)

Row | SMILES | Papp at 18 hours, 50 µM [1] [×10⁻⁶ cm/s] | microsomal CLint at 1 uM [2] [µL/min/mg]
1 | CC(C)C[C@H]1C(=O)N(C)[C@@H](CC(C)C)C(=O)N[C@@H](C)CC(=O)N(C)CCCC(=O)N(C)[C@@H](Cc2ccccc2)C(=O)N[C@@H]([C@@H](C)O)C(=O)N(C)CC(=O)N[C@@H](COC(C)(C)C)C(=O)N1C [DP-795] (cyclo([NMeF]T[Sar]S(tBu)[NMeL][NMeL][β3hA][NMeGABA])) | 19 | 143
2 | CC(C)C[C@H]1C(=O)N[C@H](C(=O)N(C)[C@@H](Cc2ccccc2)C(=O)N[C@@H](C)C(=O)N2CCCCC2)CC(=O)N[C@H](C)C(=O)N(C)[C@@H](Cc2ccccc2)C(=O)N(C)[C@@H](CC(C)C)C(=O)N[C@@H]([C@@H](C)O)C(=O)N(C)[C@@H](C)C(=O)N(C)[C@@H](CC(C)C)C(=O)N[C@@H](C(C)C)C(=O)N1C [DP-197] ([dA][NMeF][NMeL]T[NMeA][NMeL]V[NMeL]D[NMeF]A-Piperidide; lactam N-9) | 27 | 48
3 | CC(C)C[C@H]1C(=O)N(C)[C@@H](Cc2ccccc2)C(=O)N[C@@H]([C@@H](C)O)C(=O)N(C)[C@@H](C)C(=O)N(C)[C@@H](CC(C)C)C(=O)N(C)[C@@H](C)C(=O)N[C@H](C(=O)N2CCCCC2)CC(=O)N(C)CCC(=O)N(C)[C@@H](C)C(=O)N[C@@H](C)C(=O)N(C)[C@@H](C(C)C)C(=O)N1C [DP-414] ([NMeβAla][NMeA]A[NMeV][NMeL][NMeF]T[NMeA][NMeL][NMeA]D-Piperidide; lactam N-11) | 4.4 | 20
4 | CC(C)C[C@H]1C(=O)N(C)[C@@H](CC(C)C)C(=O)N[C@H](C(=O)N2CCCCC2)CC(=O)N[C@H](C)C(=O)N(C)[C@@H](Cc2ccccc2)C(=O)N(C)[C@@H](CC(C)C)C(=O)N[C@@H]([C@@H](C)O)C(=O)N1C [DP-721] ([dA][NMeF][NMeL]T[NMeL][NMeL]D-Piperidide; lactam N-7) | 49 | 915
5 | CC(C)C[C@H]1C(=O)N[C@@H]([C@@H](C)O)C(=O)N(C)[C@@H](Cc2ccccc2)C(=O)N(C)[C@@H](CC(C)C)C(=O)NCC(=O)N(C)[C@@H](C(C)C)C(=O)N[C@@H](Cc2ccccc2)C(=O)N[C@H](C(=O)N(C)[C@@H](Cc2ccccc2)C(=O)N(C)[C@@H](Cc2ccccc2)C(=O)N[C@@H](C)C(=O)N2CCCCC2)CC(=O)N(C)[C@H](C)C(=O)N[C@@H](C(C)C)C(=O)N1C [DP-503] ([dNMeA]V[NMeL]T[NMeF][NMeL]G[NMeV]FD[NMeF][NMeF]A-Piperidide; lactam N-10) | 0.2 | 43
6 | CC(C)C[C@H]1C(=O)N(C)[C@@H](C)C(=O)N[C@@H]([C@@H](C)O)C(=O)N(C)[C@@H](C)C(=O)N(C)[C@@H](CC(C)C)C(=O)N(C)[C@@H](Cc2ccccc2)C(=O)N[C@H](C(=O)N2CCCCC2)CC(=O)N(C)[C@H](C)C(=O)N(C)[C@@H](C)C(=O)N[C@@H](C)C(=O)N(C)[C@@H](C)C(=O)N1C [DP-476] ([dNMeA][NMeA]A[NMeA][NMeL][NMeA]T[NMeA][NMeL][NMeF]D-Piperidide; lactam N-11) | 2.8 | 10
7 | CC[C@H](C)[C@@H]1NC(=O)[C@H](CC(C)C)NC(=O)[C@H](C)N(C)C(=O)[C@H](CC(C)C)N(C)C(=O)[C@H](CC(C)C)NC(=O)[C@H](Cc2cccc(Cl)c2)N(C)C(=O)[C@H]([C@@H](C)O)NC(=O)[C@H](C)N(C)C(=O)[C@H](C(C)C)NC(=O)[C@H](C)N(C)C(=O)C[C@@H](C(=O)N(C)[C@@H](Cc2ccccc2)C(=O)N(C)[C@@H](CC(C)C)C(=O)N[C@H](C(=O)N2CCCCC2)[C@@H](C)CC)NC1=O [DP-950] ([NMeA]V[NMeA]T[NMePhe(3-Cl)]L[NMeL][NMeA]LID[NMeF][NMeL]I-Piperidide; lactam N-11) | 0.1 | 12
8 | CC(C)C[C@@H]1NC(=O)[C@H](CC(C)C)N(C)C(=O)[C@H](COC(C)(C)C)NC(=O)[C@H](Cc2ccccc2)N(C)C(=O)[C@H](C)N(C)C(=O)C[C@@H](C(=O)N2CCCCC2)NC(=O)[C@H](CC(C)C)N(C)C(=O)[C@H]([C@@H](C)O)NC1=O [DP-698] ([NMeA][NMeF]S(tBu)[NMeL]LT[NMeL]D-Piperidide; lactam N-8) | 31 | 142
9 | CC[C@H](C)[C@H]1C(=O)N[C@H](C(=O)N2CCCCC2)CC(=O)N(C)CCCC(=O)N(C)[C@@H](CC(C)C)C(=O)N[C@@H](C)C(=O)N(C)[C@@H](CC(C)C)C(=O)N(C)[C@@H](Cc2ccccc2)C(=O)N(C)[C@@H](CC(C)C)C(=O)N[C@@H]([C@@H](C)O)C(=O)N(C)[C@@H](C)C(=O)N(C)[C@@H](Cc2ccccc2)C(=O)N1C [DP-251] ([NMeGABA][NMeL]A[NMeL][NMeF][NMeL]T[NMeA][NMeF][NMeI]D-Piperidide; lactam N-11) | 24 | 45
